# Read-outs that look alike come from different tables or passages of the source.
# Columns and labels:
# COVID-19 [1] = assay: COVID-19 clinical trial: clinical improvement on WHO 9-category ordinal scale; format: in vivo, human
# Protocol: (§1) Inclusion Criteria • 1. Male or female patients at least 18 years and up to 75 years old • 2. Signed informed consent • 3. Admitted to hospital for treatment of COVID-19. • 4. Patient within 7 days from symptom onset and within 72 hours after laboratory diagnosis (SARS-CoV-2 RT-PCR) • 5. Mild to Moderate COVID-19 disease defined as clinical status category up to 3 on the WHO 9-point ordinal scale, and/or NEWS2 score of 0 to 4 inclusive. • Hospitalized, no oxygen treatment • 6. Presence of at least 1 symptom characteristic for COVID-19 disease, e.g. fever, cough, sore throat, myalgia, fatigue, GI disorders, skin lesions, anosmia, ageusia, headache, etc • 7. In women of childbearing potential, negative pregnancy test and commitment to use contraceptive method throughout the study.
# (§2) Patients are screened for 24-36 hours. […] It is encouraged to screen potential participants immediately at the day of hospitalization (including informed consent, assessment of inclusion/exclusion criteria, screening laboratory tests all done by the local central lab, assessment of clinical symptoms criteria) and randomize patients on the same day (thus, Screening period and Day 1 will coincide). To assess eligibility criteria, central local laboratory values obtained within 24-36 hours of randomization will be used, except for pre-study testing of positive status of COVID-19 infection where a 72-hours window.
# The secondary endpoints, related to the secondary study objectives are the following: • a. Number of patients achieving clinical improvement on Day 7 • b. Number of patients achieving clinical improvement on Day 14 • c. Number of patients achieving clinical recovery on Day 7 • d. Number of patients achieving clinical recovery on Day 14
# (§3) Day 1 is defined as the day of the first IMP/placebo administration.
# The clinical disease severity during the study will be assessed based on the WHO Ordinal Scale for Clinical Status (Table 2). The WHO scale is a 9-category ordinal scale and was developed to have a standardized measure of the COVID-19 disease severity. The scale comprises patient status (outpatient or hospitalized), virus status (infected yes or no), limitation of activities, oxygen support, and organ support.
# The same picture was observed on Day 5, with difference 18% (p=0.03 . . . ), regarding the endpoint Clinical improvement. This endpoint was measured using WHO 9-category ordinal scale, developed to have a standardized measure of the COVID-19 disease severity. Clinical improvement is defined as a decrease on WHO ordinal scale score by at least one point. For our statistical calculations from data obtained from the clinical trials we used the method described above i.e. O'Brien-Fleming method for normally distributed data.
# [2] = various species; cited from earlier work
# C reactive protein = assay: COVID-19 clinical trial: predictive marker C reactive protein; format: in vivo, human; conditions: Day 14
# [3] = acute oral, mice; cited from earlier work
# [4] = acute oral, rats; relative to 200 μg/kg in mice; cited from earlier work
# COVID-19 [5] = assay: COVID-19 clinical trial: time to hospital discharge; format: in vivo, human; conditions: p=0.2755
# Protocol: as §1
# as §2, with “window. […]” for “window.”
# SARS-CoV-2 = assay: COVID-19 clinical trial: viral clearance in upper respiratory tract swab samples (RT-PCR); format: in vivo, human
# Protocol: as §1, §2
# Primary endpoint based on which the primary study objective will be assessed is proportion of patients who have shown negative SARS-CoV-2 PCR test on Day 7.
# as §3
# Viral Clearance in Upper Respiratory Tract Swab Samples (Qualitative)—Remission
# Upper respiratory tract swab samples will be collected on Days 3, 4, 5, 6, 7, 9, 12 and 14 or until two negative results are obtained. Between Day 15 and Day 28 RT-PCR shall be done upon the discretion of the Investigator until 2 consecutive negative tests.
# No further RT-PCR tests will be done after 2 consecutive negative tests are obtained at any time point of the study. Swab samples should be obtained from the nasopharynx and oropharynx with two different swabs and combined in one tube, containing universal transport media. Samples are collected preferably in the mornings of each study day. Full instructions for collection, preparation, labelling, storage and shipment of samples are provided in the Laboratory Manual.
# D-dimer = assay: COVID-19 clinical trial: predictive marker D-dimer; format: in vivo, human
# [6] = cited from earlier work; for mean peak plasma concentration of the major component (H2B1a): single 12-mg dose (mean 165 mcg/kg)
# [7] = variety of species; cited from earlier work
# [8] = dogs; cited from earlier work
# [9] = people treated with ivermectin; cited from earlier work
# [10] = rhesus monkeys, cited from earlier work
# [11] = fourteen-week study, rats; cited from earlier work
# [12] = rats; cited from earlier work
# [13] = rabbits; cited from earlier work
# mouse lymphoma = conditions: cited from earlier work
# [14] = system: human fibroblast cell culture; conditions: cited from earlier work
# [15] = repeated dose, 2 weeks, rhesus monkeys; cited from earlier work
# [16] = fourteen-week study, dogs; cited from earlier work
# [17] = mice; cited from earlier work
substance,measurement,setting,value
ivermectin,Clinical improvement versus placebo arm,"COVID-19 [1]; Day 4, p=0.02..., decrease on WHO ordinal scale by at least one point",statistically significant difference
same,"Clinical improvement, difference versus placebo arm","COVID-19 [1]; Day 5, p=0.03...",18%
same,Clinical improvement by visit day,"COVID-19 [1]; FIG. 3, later difference statistically insignificant",better results at days 4 and 5
same,overall clinical benefit versus Placebo treatment arm,COVID-19 [1]; early days of infection (day 4 and day 5 after initial dose),definitely shows clinical benefit
same,breeding performance,[2],has not been adversely affected
same,CRP mean value,C reactive protein,13.76 mg/L
same,CRP median value,C reactive protein,3.70 mg/L
same,dose producing tremors and ataxia,[3],0.2 mg/kg
same,dose producing tremors and ataxia,[4],slightly higher doses
same,"Time to hospital discharge, difference between arms",COVID-19 [5],no statistically significant difference
same,effect on viral clearance,"SARS-CoV-2; Day 4, immediately after treatment, 2 consecutive negative PCR tests",beneficial effect on the viral clearance
same,patients with negative PCR test results (2 consecutive negative tests),"SARS-CoV-2; Day 4, 400 μg/kg/day peroral Days 1-3 plus SoC, placebo arm 42%",52%
same,"Day of second negative PCR test, Mean","SARS-CoV-2; N=50, 400 μg/kg/day peroral Days 1-3 plus SoC",5.52
same,day by which the effect appears,SARS-CoV-2; PCR test endpoint,< 7 days
same,"Day of second negative PCR test, Difference Reference minus Test","SARS-CoV-2; p-value 0.3407, statistically insignificant",0.54 days
same,D-dimer mean value,D-dimer; Day 3,395.8 ng/mL
same,D-dimer mean value,D-dimer; Day 14,561.69 ng/mL
same,mean peak plasma concentration of the major component (H2B1a),"[6]; first of two studies, fasting healthy volunteers, range 16.4-101.1",46.6 (±21.9) ng/mL
same,period of excretion in the feces,"[6]; ivermectin and/or metabolites, excreted almost exclusively in the feces",~12 days
same,plasma half-life,"[6]; man, oral administration",approximately 18 hours
same,plasma concentration versus dose,[6]; oral administration,approximately proportional to the dose
same,administered dose excreted in the urine,[6]; oral,less than 1%
same,mean peak plasma concentration of the major component (H2B1a),"[6]; second of two studies, fasting healthy volunteers, range 13.9-68.4",30.6 (±15.6) ng/mL
same,time of peak plasma concentration after dosing,"[6]; single 12-mg dose, fasting healthy volunteers",approximately 4 hours
same,tolerability of a 200 μg/kg dose,[7],generally well tolerated
same,single oral dose with no significant lethality,[8],up to 10 mg/kg
same,common side effects,[9],"headache, dizziness, drowsiness, muscle pain, abdominal pain, nausea, vomiting or diarrhea, pruritus, fatigue, hypotension"
same,minimum toxic dose,[10]; acute oral,"2,000 μg/kg"
same,"toxic effects (emesis, mydriasis, sedation) at high doses",[10]; doses up to 24 mg/kg (120-fold the clinical dose),only slight increases in the observed toxic effects
same,dose with no adverse effects,[11],400 µg/kg/day
same,oral dose causing cleft palates,[12],10 mg/kg/day
same,dose causing cleft palates and clubbed feet,[13],3 mg/kg/day
same,mouse lymphoma mutation assay result,mouse lymphoma,negative
same,unscheduled DNA synthesis,[14],did not induce
same,dose with no adverse effects,[15],"up to 1,200 μg/kg/day"
same,dose with no adverse effects,[16],500 µg/kg/day
same,oral dose causing cleft palates,[17],0.4 mg/kg/day

# From patent US20230111504A1, “COR[…] AND AVERMECTINS” (Huvepharma EOOD, priority 2020, published 2023)
